Reference: PubChem BioAssay (NCI)
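Cultured in 96-well plates, cells were exposed to test compound for 48 hours across five concentrations. Abbreviation: GI50, concentration required for 50% inhibition of growth. TGI is the concentration that stops growth completely.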

Tests used:
Test in all cases: NCI-60 cell line screen, 48 h
MOLT-4 leukemia = tested on: MOLT-4 leukemia
CAKI-1 renal = tested on: CAKI-1 renal
HOP-92 NSCLC = tested on: HOP-92 NSCLC
CCRF-CEM leukemia = tested on: CCRF-CEM leukemia
OVCAR-4 ovarian = tested on: OVCAR-4 ovarian
NCI-H460 lung = tested on: NCI-H460 lung
SR leukemia = tested on: SR leukemia
RXF 393 renal = tested on: RXF 393 renal
TK-10 renal = tested on: TK-10 renal
DU-145 prostate = tested on: DU-145 prostate

Row | SMILES | GI50 (MOLT-4 leukemia) | TGI (MOLT-4 leukemia) | GI50 (CAKI-1 renal) | TGI (CAKI-1 renal) | GI50 (HOP-92 NSCLC) | TGI (HOP-92 NSCLC) | GI50 (CCRF-CEM leukemia) | TGI (CCRF-CEM leukemia) | GI50 (OVCAR-4 ovarian) | TGI (OVCAR-4 ovarian) | GI50 (NCI-H460 lung) | TGI (NCI-H460 lung) | GI50 (SR leukemia) | TGI (SR leukemia) | GI50 (RXF 393 renal) | TGI (RXF 393 renal) | GI50 (TK-10 renal) | TGI (TK-10 renal) | GI50 (DU-145 prostate) | TGI (DU-145 prostate)
1 | NC1CCN(Cc2ccccc2)CC1 | > 100 µM | > 100 µM | > 100 µM | > 100 µM | > 100 µM | > 100 µM | > 100 µM | > 100 µM | > 100 µM | > 100 µM | > 100 µM | > 100 µM | > 100 µM | > 100 µM | 8.22 µM | > 100 µM | > 100 µM | > 100 µM | – | –
2 | COc1ccc(-c2nnc3n(C)c(=O)c4ccccc4n23)cc1N | 3.92 µM | > 100 µM | 1.95 µM | > 100 µM | 10.9 µM | 99.5 µM | 2.75 µM | > 100 µM | 16.3 µM | > 100 µM | 0.0508 µM | > 100 µM | 0.0346 µM | > 100 µM | 2.59 µM | > 100 µM | – | – | 3.09 µM | > 100 µM
3 | Clc1cc2c(c(CSc3nc4ccccc4n4cccc34)c1)OCOC2 | > 100 µM | > 100 µM | > 100 µM | > 100 µM | 5.36 µM | 35.5 µM | > 100 µM | > 100 µM | – | – | > 100 µM | > 100 µM | > 100 µM | > 100 µM | 15.2 µM | 61.9 µM | 3.49 µM | 60.3 µM | > 100 µM | > 100 µM
4 | CCN(CC)CCNc1nc(N)c(C#N)c(C#N)c1C#N | – | > 10 µM | – | > 10 µM | – | > 10 µM | – | > 10 µM | – | > 10 µM | – | > 10 µM | – | – | – | > 10 µM | – | > 10 µM | – | > 10 µM
5 | CN1CCC(=O)/C(=C/c2ccccc2)C1 | – | 34.3 µM | – | 33.9 µM | – | 31.9 µM | – | 50.7 µM | – | 32.5 µM | – | 41.8 µM | – | 61.3 µM | – | 26.8 µM | – | 29.6 µM | – | –
6 | COC1C(OC(=S)Nc2ccccc2)c2ccccc2N1C(C)=O (centres undefined) | – | > 100 µM | – | > 100 µM | – | 92.2 µM | – | > 100 µM | – | > 100 µM | – | > 100 µM | – | > 100 µM | – | > 100 µM | – | – | – | –
7 | CC(C)(/C=C(\C#N)C(=O)N1CCC[C@@H](n2nc(-c3ccc(Oc4ccccc4)cc3F)c3c(N)ncnc32)C1)N1CCN(C2COC2)CC1 | 2.94 µM | 13.7 µM | 6.39 µM | 18.8 µM | 2.8 µM | 11.1 µM | 5.69 µM | > 100 µM | 5.69 µM | 20.4 µM | 6.3 µM | 20.8 µM | – | – | 2.31 µM | 7.66 µM | 4.12 µM | 15.9 µM | 12.3 µM | 26.8 µM
8 | COc1cnc2c(c1)C(=O)c1c-2n(CCCNC2=NCCS2)c(=O)c2cc([N+](=O)[O-])ccc12 | – | – | < 0.01 µM | 1.47 µM | – | – | – | – | 0.482 µM | 2.58 µM | < 0.01 µM | 1.24 µM | – | – | – | – | – | – | < 0.01 µM | 1.38 µM
9 | CC(C)C1=Cc2ccc3c(c2C(=O)C1=O)CCCC3(C)C | – | – | – | 6.69 µM | – | 9.79 µM | – | > 100 µM | – | 3.48 µM | – | 37 µM | – | 6.48 µM | – | 3.86 µM | – | 11.2 µM | – | –
